pKi: −log10 of the molar value. Several values for one entry are separate records, joined by “and”; a condition that tells them apart may be missing. Identical values can stand only once.
Assay: The internally quenched fluorogenic depsipeptide substrate Ac-DED(Edans)-EEAbuΨ[COO]ASK(Dabcyl)-NH2 and a synthetic peptide containing the hydrophobic core residues of the NS4A protein cofactor ([…]; NS4A peptide) were obtained from Anaspec, Inc. (San Jose, Calif.). Other chemicals and biochemicals were of reagent grade or better and were purchased from standard suppliers.Reactions were run at room temperature in buffer consisting of 50 mM HEPES, 40% glycerol, 0.05% Triton X-100, 10 mM DTT, and 10% DMSO. The final assay solutions contained 50 pM NS3 genotype 1 b protease or 200 pM genotype 3a protease, 20 μM NS4A peptide, and 4 μM substrate (genotype 1b) or 2 μM substrate (genotype 3a). Inhibitor concentrations varied from 100 nM to 5 pM in 3-fold dilutions, and no-inhibitor controls were included.Compound dilutions were made in DMSO at 20× final concentration. Reaction mixtures were prepared in 96-well assay plates. A solution of enzyme and NS4A peptide in assay buffer (25 μL volume with both reagents at 4× final concentration) was mixed with 45 μL assay buffer and 5 μL of either inhibitor or DMSO, and pre-incubated at room temperature for 1 hour. The reaction was started by addition of 25 μL substrate solution at 4× final concentration. […]

SMILES | pKi
C=CCCC[C@@H]1CCCC1(OC(=O)N[C@H](C(=O)N1C[C@H](Oc2nc3cc(OC)ccc3nc2Cl)[C@@H](CC)[C@H]1C(=O)OC(C)(C)C)C(C)(C)C)C(F)(F)F (some centres not stated) | 9.23 and 9.28
C=CCC[C@@H]1C[C@H]1OC(=O)N[C@H](C(=O)N1C[C@H](Oc2nc3cc(OC)ccc3nc2C(F)(F)C=C)[C@@H](C)[C@H]1C(=O)OC(C)(C)C)C(C)(C)C | 10.30 and 9.72

— ChEMBL document CHEMBL5727172, “Inhibitors of hepatitis C virus” (2019)
